Where two headings read alike, the source gives them in different places.
Tests used:
rat α4β2 nAChR subtype = biological target: T1, rat α4β2 nAChR subtype (Rattus norvegicus, UniProt P09483+P12390); assay: Radioligand binding, [3H]nicotine, rat cortex membranes; conditions: [3H]nicotine 5 nM
T1 construct: The cerebral cortex was removed and placed in 20 volumes (weight:volume) of ice-cold preparative buffer; from tissue; host or cells: rat cerebral cortex membranes (female Sprague-Dawley)
Description: Preparation of Membranes from Rat Cortex: Rats (Female, Sprague-Dawley), weighing 150-250 g, were maintained on a 12 h light/dark cycle and were allowed free access to water and food supplied by PMI Nutrition International, Inc. Animals were anesthetized with 70% CO2, and then decapitated. Brains were removed and placed on an ice-cold platform. The cerebral cortex was removed and placed in 20 volumes (weight:volume) of ice-cold preparative buffer (137 mM NaCl, 10.7 mM KCl, 5.8 mM KH2PO4, 8 mM Na2HPO4, 20 mM HEPES (free acid), 5 mM iodoacetamide, 1.6 mM EDTA, pH 7.4); PMSF, dissolved in methanol to a final concentration of 100 μM, was added and the suspension was homogenized by Polytron. The homogenate was centrifuged at 18,000×g for 20 min at 4° C. and the resulting pellet was re-suspended in 20 volumes of ice-cold water. After 60 min incubation on ice, a new pellet was collected by centrifugation at 18,000×g for 20 min at 4° C. The final pellet was re-suspended in 10 volumes of buffer and stored at −20° C.
(§1) On the day of the assay, the frozen membranes were thawed and spun at 48,000×g for 20 min. The supernatant was decanted and discarded. The pellet was resuspended in Dulbecco's phosphate buffered saline (PBS, Life Technologies) pH 7.4 and homogenized with the Polytron for 6 seconds. Protein concentrations were determined using a Pierce BCA Protein Assay Kit, with bovine serum albumin as the standard (Pierce Chemical Company, Rockford, Ill.).
(§2) Membrane preparations (approximately 50 μg for human and 200-300 μg protein for rat α4β2) were incubated in PBS (50 μL and 100 μL respectively) in the presence of competitor compound (0.01 nM to 100 μM) and 5 nM [^3H]nicotine for 2-3 hours on ice. Incubation was terminated by rapid filtration on a multi-manifold tissue harvester (Brandel, Gaithersburg, Md.) using GF/B filters presoaked in 0.33% polyethyleneimine (w/v) to reduce non-specific binding. Tissue was rinsed 3 times in PBS, pH 7.4. Scintillation fluid was added to filters containing the washed tissue and allowed to equilibrate. Filters were then counted to determine radioactivity bound to the membranes by liquid scintillation counting (2200CA Tri-Carb LSC, Packard Instruments, 50% efficiency or Wallac Trilux 1450 MicroBeta, 40% efficiency, Perkin Elmer).
(§3) Data were expressed as disintegrations per minute (DPMs). Within each assay, each point had 2-3 replicates. The replicates for each point were averaged and plotted against the log of the drug concentration. IC50, which is the concentration of the compound that produces 50% inhibition of binding, was determined by least squares non-linear regression. Ki values were calculated using the Cheng-Prussof equation (1973): […]

human α4β2 nAChR subtype = biological target: T2, human α4β2 nAChR subtype (Homo sapiens, UniProt P17787+P43681); assay: Radioligand binding, [3H]nicotine, membranes from SH-EP1/human α4β2 clonal cells; conditions: [3H]nicotine 5 nM, SH-EP1/human α4β2 cell membranes
T2 construct: expressed in transfected cells; host or cells: SH-EP1 clonal cells expressing human α4β2
T2 sequence (P43681 29-627 limits assumed): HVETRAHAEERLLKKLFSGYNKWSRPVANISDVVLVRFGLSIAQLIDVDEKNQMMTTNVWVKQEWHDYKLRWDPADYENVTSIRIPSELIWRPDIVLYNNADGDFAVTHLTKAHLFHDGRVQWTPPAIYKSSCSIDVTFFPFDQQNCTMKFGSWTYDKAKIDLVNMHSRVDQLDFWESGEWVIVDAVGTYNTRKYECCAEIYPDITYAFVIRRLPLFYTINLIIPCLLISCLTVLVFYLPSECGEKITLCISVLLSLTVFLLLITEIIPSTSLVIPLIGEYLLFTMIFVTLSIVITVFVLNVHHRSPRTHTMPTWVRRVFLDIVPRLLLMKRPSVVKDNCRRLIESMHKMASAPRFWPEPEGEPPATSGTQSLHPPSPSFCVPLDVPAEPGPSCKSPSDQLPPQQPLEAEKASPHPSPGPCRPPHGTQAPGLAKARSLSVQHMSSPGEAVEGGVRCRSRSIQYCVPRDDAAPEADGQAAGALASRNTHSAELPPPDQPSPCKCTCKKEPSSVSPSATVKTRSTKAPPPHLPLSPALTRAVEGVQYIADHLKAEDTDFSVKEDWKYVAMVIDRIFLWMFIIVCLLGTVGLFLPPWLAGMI
T2 sequence (P17787 26-502): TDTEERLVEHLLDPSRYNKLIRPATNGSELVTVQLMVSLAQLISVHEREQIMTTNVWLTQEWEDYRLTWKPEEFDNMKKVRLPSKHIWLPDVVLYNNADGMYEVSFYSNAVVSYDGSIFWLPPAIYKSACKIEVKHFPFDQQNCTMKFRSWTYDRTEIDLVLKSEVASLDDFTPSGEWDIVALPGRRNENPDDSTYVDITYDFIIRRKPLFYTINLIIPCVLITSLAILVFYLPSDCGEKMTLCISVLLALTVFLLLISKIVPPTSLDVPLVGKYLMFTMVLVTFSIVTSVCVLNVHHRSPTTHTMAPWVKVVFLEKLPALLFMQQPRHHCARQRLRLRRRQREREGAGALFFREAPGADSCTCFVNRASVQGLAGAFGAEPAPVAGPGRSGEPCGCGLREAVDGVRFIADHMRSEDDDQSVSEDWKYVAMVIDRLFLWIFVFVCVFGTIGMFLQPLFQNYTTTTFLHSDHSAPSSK
Description: Preparation of membranes from SH-EP1/human α4β2 clonal cells: Cell pellets from 40 150 mm culture dishes were pooled, and homogenized by Polytron (Kinematica GmbH, Switzerland) in 20 milliliters of ice-cold preparative buffer. The homogenate was centrifuged at 48,000 g for 20 minutes at 4° C. The resulting pellet was re-suspended in 20 mL of ice-cold preparative buffer and stored at −20° C.
as §1, §2, §3

α7 nAChR subtype = biological target: T3, α7 nAChR subtype (Rattus norvegicus, UniProt Q05941); assay: Radioligand binding, [3H]MLA, rat hippocampus membranes; conditions: for inhibition at 5 µM: read-out: α7 high through-put screening (HTS) result
T3 construct: The hippocampus was removed and placed in 10 volumes (weight:volume) of ice-cold preparative buffer; from tissue; host or cells: rat hippocampus membranes (female Sprague-Dawley)
T3 sequence (Q05941 23-502): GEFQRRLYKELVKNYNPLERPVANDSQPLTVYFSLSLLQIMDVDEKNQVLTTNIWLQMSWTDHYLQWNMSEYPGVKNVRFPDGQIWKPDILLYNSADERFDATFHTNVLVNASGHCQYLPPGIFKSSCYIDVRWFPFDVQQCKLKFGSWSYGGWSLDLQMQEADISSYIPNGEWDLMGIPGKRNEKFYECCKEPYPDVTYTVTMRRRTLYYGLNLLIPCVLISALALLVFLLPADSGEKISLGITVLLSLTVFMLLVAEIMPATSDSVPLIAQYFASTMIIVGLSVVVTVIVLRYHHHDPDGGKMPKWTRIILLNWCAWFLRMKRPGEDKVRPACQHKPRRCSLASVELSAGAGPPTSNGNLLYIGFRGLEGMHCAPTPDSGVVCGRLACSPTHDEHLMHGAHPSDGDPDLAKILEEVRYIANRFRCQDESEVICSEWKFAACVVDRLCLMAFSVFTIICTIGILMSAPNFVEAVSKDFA
Description: Rats (female, Sprague-Dawley), weighing 150-250 g, were maintained on a 12 h light/dark cycle and were allowed free access to water and food supplied by PMI Nutrition International, Inc. Animals were anesthetized with 70% CO2, then decapitated. Brains were removed and placed on an ice-cold platform. The hippocampus was removed and placed in 10 volumes (weight:volume) of ice-cold preparative buffer (137 mM NaCl, 10.7 mM KCl, 5.8 mM KH2PO4, 8 mM Na2HPO4, 20 mM HEPES (free acid), 5 mM iodoacetamide, 1.6 mM EDTA, pH 7.4); PMSF, dissolved in methanol to a final concentration of 100 μM, was added and the tissue suspension was homogenized by Polytron. The homogenate was centrifuged at 18,000×g for 20 min at 4° C. and the resulting pellet was re-suspended in 10 volumes of ice-cold water. After 60 min incubation on ice, a new pellet was collected by centrifugation at 18,000×g for 20 min at 4° C. The final pellet was re-suspended in 10 volumes of buffer and stored at −20° C. On the day of the assay, tissue was thawed, centrifuged at 18,000×g for 20 min, and then re-suspended in ice-cold PBS (Dulbecco's Phosphate Buffered Saline, 138 mM NaCl, 2.67 mM KCl, 1.47 mM KH2PO4, 8.1 mM Na2HPO4, 0.9 mM CaCl2, 0.5 mM MgCl2, Invitrogen/Gibco, pH 7.4) to a final concentration of approximately 2 mg protein/mL. Protein was determined by the method of Lowry et al., J. Biol. Chem. 193: 265 (1951), using bovine serum albumin as the standard.
The binding of [^3H]MLA was measured using a modification of the methods of Davies et al., Neuropharmacol. 38: 679 (1999). [^3H]MLA (Specific Activity=25-35 Ci/mmol) was obtained from Tocris. The binding of [^3H]MLA was determined using a 2 h incubation at 21° C. Incubations were conducted in 48-well micro-titre plates and contained about 200 μg of protein per well in a final incubation volume of 300 μL. The incubation buffer was PBS and the final concentration of [^3H]MLA was 5 nM. The binding reaction was terminated by filtration of the protein containing bound ligand onto glass fiber filters (GF/B, Brandel) using a Brandel Tissue Harvester at room temperature. Filters were soaked in de-ionized water containing 0.33% polyethyleneimine to reduce non-specific binding. Each filter was washed with PBS (3×1 mL) at room temperature. Non-specific binding was determined by inclusion of 50 μM non-radioactive MLA in selected wells.
The inhibition of [^3H]MLA binding by test compounds was determined by including seven different concentrations of the test compound in selected wells. Each concentration was replicated in triplicate. IC50 values were estimated as the concentration of compound that inhibited 50 percent of specific [^3H]MLA binding. Inhibition constants (Ki values), reported in nM, were calculated from the IC50 values using the method of Cheng et al., Biochem. Pharmacol. 22: 3099-3108 (1973).

[1] = [3H]MLA 5 nM, rat hippocampus membranes, read-out: α7 Ki

T1 sequence (P09483 31-630): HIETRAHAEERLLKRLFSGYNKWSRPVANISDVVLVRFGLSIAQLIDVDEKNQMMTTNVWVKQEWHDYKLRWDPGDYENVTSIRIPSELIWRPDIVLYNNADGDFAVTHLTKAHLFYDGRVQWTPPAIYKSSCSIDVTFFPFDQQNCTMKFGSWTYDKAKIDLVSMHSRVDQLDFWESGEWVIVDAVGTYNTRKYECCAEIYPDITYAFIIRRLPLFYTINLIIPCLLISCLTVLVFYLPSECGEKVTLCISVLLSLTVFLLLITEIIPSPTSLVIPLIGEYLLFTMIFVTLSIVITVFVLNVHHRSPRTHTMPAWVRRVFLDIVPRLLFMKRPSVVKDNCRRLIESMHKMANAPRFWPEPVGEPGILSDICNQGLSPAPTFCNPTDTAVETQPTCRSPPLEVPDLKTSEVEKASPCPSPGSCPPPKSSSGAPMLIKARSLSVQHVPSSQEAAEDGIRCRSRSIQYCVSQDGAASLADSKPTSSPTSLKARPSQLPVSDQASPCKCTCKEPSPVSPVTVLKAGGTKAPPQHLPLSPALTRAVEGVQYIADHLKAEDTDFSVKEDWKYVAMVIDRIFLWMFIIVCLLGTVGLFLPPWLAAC
T1 sequence (P12390 25-500): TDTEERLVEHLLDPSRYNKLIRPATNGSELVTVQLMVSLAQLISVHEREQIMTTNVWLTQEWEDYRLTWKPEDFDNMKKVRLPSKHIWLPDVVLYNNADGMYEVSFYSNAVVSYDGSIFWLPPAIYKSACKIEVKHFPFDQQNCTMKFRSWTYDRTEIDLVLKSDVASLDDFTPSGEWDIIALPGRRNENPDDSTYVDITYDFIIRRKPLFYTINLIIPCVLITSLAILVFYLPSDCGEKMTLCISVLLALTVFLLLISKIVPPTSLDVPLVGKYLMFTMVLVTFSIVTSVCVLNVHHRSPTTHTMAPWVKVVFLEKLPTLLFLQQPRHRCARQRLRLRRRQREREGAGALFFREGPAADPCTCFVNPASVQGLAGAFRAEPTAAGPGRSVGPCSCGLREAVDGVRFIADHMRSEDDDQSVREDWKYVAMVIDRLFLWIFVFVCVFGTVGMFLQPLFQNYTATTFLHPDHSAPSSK

| SMILES | Ki (rat α4β2 nAChR subtype) | Ki (human α4β2 nAChR subtype) | inhibition at 5 µM (α7 nAChR subtype) | Ki (α7 nAChR subtype; [1]) | Ki (α7 nAChR subtype; α7 Ki) |
| --- | --- | --- | --- | --- | --- |
| C/C=C/CC(=O)N1CC2CNCC(C2)C1 [Example 10-66] | 30.1 nM | 16.7 nM | < 50% |  |  |
| CCCC(=O)N1CC2CNCC(C2)C1 [Example 10-67] | 8.1 nM | 2.9 nM |  | 230 nM |  |
| O=C(C1CC1(F)F)N1CC2CNCC(C2)C1 (stereo not drawn) [Example 10-68] | 1.2 nM | 1.1 nM |  | 142 nM |  |
| CC1(C)CC1C(=O)N1CC2CNCC(C2)C1 (stereo not drawn) [Example 10-69] | 1.5 nM | 1 nM |  | 377 nM |  |
| CC1(C(=O)N2CC3CNCC(C3)C2)CC1 [Example 10-70] | 874 nM | 214 nM | < 50% |  |  |
| CC1CC1C(=O)N1CC2CNCC(C2)C1 (stereo not drawn) [Example 10-71] | 1.4 nM | 1 nM |  | 78.7 nM |  |
| O=C(N1CC2CNCC(C2)C1)C1(O)CC1 [Example 10-72] | 75.9 nM | 225 nM | < 50% |  |  |
| CC1(C)C(C(=O)N2CC3CNCC(C3)C2)C1(C)C [Example 10-73] | 119 nM | 28.2 nM | < 50% |  |  |
| N#CC1(C(=O)N2CC3CNCC(C3)C2)CC1 [Example 10-74] | 4840 nM | 1340 nM | < 50% |  |  |
| O=C(C1CCC1)N1CC2CNCC(C2)C1 [Example 10-75] | 1.6 nM | 1.4 nM |  | 70 nM |  |
| O=C(C1CC12CCC2)N1CC2CNCC(C2)C1 (stereo not drawn) [Example 10-76] | 1.6 nM | 1.1 nM |  | 680 nM |  |
| O=C(C1CC=CC1)N1CC2CNCC(C2)C1 [Example 10-77] | 25.6 nM | 12.5 nM |  | 54 nM |  |
| O=C([C@H]1C[C@H]1F)N1CC2CNCC(C2)C1 [Example 10-78] | 2.9 nM | 1.7 nM |  |  | 397 nM |
| O=C([C@H]1C[C@@H]1F)N1CC2CNCC(C2)C1 [Example 10-79] | 4.1 nM | 2 nM |  |  | 961 nM |
| O=C(CCF)N1CC2CNCC(C2)C1 [Example 10-80] | 13.8 nM | 9.5 nM | < 50% |  |  |
| CC(C)C(=O)N1CC2CNCC(C2)C1 [Example 10-81] | 102 nM | 44.4 nM |  | 645 nM |  |
| O=C(C1CC(F)C1)N1CC2CNCC(C2)C1 (stereo not drawn) [Example 10-82] | 1.4 nM | 2.9 nM |  | 1040 nM |  |
| O=C(CC1CC1)N1CC2CNCC(C2)C1 [Example 10-83] | 13.3 nM | 33.9 nM | < 50% |  |  |
| O=C(CS(=O)(=O)c1ccccc1)N1CC2CNCC(C2)C1 [Example 10-84] | 959 nM | 598 nM | < 50% |  |  |
| CS(=O)(=O)CC(=O)N1CC2CNCC(C2)C1 [Example 10-85] | 190 nM | 131 nM | < 50% |  |  |
| O=C(C1CCCC1)N1CC2CNCC(C2)C1 [Example 10-86] | 26.6 nM | 20.2 nM |  | 211 nM |  |
| O=C([C@H]1C[C@@H]1F)N1CC2CNCC(C2)C1 [Example 10-87] | 11.4 nM | 5.2 nM |  |  | 592 nM |
| O=C([C@@H]1C[C@H]1F)N1CC2CNCC(C2)C1 [Example 10-88] | 1.8 nM | 1.4 nM |  |  | 243 nM |
| O=C([C@@H]1C[C@@H]1F)N1CC2CNCC(C2)C1 [Example 10-89] | 0.8 nM | 1 nM |  |  | 73.4 nM |
| CC(F)(F)C(=O)N1CC2CNCC(C2)C1 [Example 10-90] | 14.6 nM | 9.2 nM | < 50% |  |  |
| CC(C)(F)C(=O)N1CC2CNCC(C2)C1 [Example 10-91] | 342 nM | 139 nM | < 50% |  |  |
| O=C([C@H]1C[C@H]1F)N1CC2CNCC(C2)C1 [Example 10-92] | 15.9 nM | 7.3 nM |  |  | 360 nM |
| O=C(C1CC2CCC1C2)N1CC2CNCC(C2)C1 (stereo not drawn) [Example 10-93] | 49.7 nM | 35.3 nM | < 50% |  |  |
| O=C(C1CC2C=CC1C2)N1CC2CNCC(C2)C1 (stereo not drawn) [Example 10-94] | 22.7 nM | 12.6 nM | < 50% |  |  |
